Results taken from ChEMBL document CHEMBL3507680, “University of Dundee, Gates Library screen for HepG2 cell viability”.

Experiment: Human HepG2 cell viability assay in 384 well format
Assay type: toxicity, cell-based
Design: dose 125 nL, time 70.5 hour; cytotoxicity at 70.5 h: concentration not given beside the values
Conditions: HepG2 cells, read-out: Inhibition

In the case of `COCc1nc2ncc3c(=O)n(-c4ccccc4OC)ccc3n2n1`, the cytotoxicity at 70.5 h is reported as -5.8%.

In the case of `COc1ncc(CN(CCN(C)C)Cc2ccc(C)s2)cn1`, the cytotoxicity at 70.5 h is reported as 12.8%.

With `Cc1nc2ncnn2c2ccn(-c3cccnc3O)c(=O)c12` the cytotoxicity at 70.5 h was -15.9%.

With `CC(C)c1nc(CN(C)Cc2ncccc2C(=O)O)cs1` the cytotoxicity at 70.5 h was 4.17%.

Work on `COCCN(Cc1ccncc1)C(=O)C1COc2c(cccc2OC)C1` (stereo not drawn) yielded a cytotoxicity at 70.5 h of 0.81%.

Work on `CCc1ccc(C2CC(=O)Nc3c2c(=O)[nH]n3C(C)C)cc1` (stereo not drawn) yielded a cytotoxicity at 70.5 h of 0.136%.

For `Cc1cnc(N2CCCC(O)C2)nc1-c1ccnn1C` (stereo not drawn), the cytotoxicity at 70.5 h was 10.8%.

In the case of `O=C(Cc1ccc(F)cc1)NCCNc1cc(N2CCCC2)ncn1`, the cytotoxicity at 70.5 h is reported as 22.2%.

`Cc1ccc(-c2cc(-c3nc(CN4CCN(C)CC4)no3)n[nH]2)cc1` showed a cytotoxicity at 70.5 h of 22.4%.

`Cc1nc(C2CCCN(C(=O)c3ccnc(N(C)C)c3)C2)no1` (stereo not drawn) showed a cytotoxicity at 70.5 h of -3.61%.

Molecule `Cc1cn2c(n1)CCC(NC(=O)Cn1cncn1)C2` (stereo not drawn) has a cytotoxicity at 70.5 h of -5.67%.

In the case of `Cc1nnc2n1CCN(C(=O)CN(C)Cc1ccccc1)C2`, the cytotoxicity at 70.5 h is reported as 19.2%.

`NS(=O)(=O)c1ccc(C(=O)N2CCCC2c2ccccc2)o1` (stereo not drawn) showed a cytotoxicity at 70.5 h of -3.63%.

For `O=C(CS(=O)(=O)Cc1cc(Cl)c2c(c1)OCO2)N1CCCC1`, the cytotoxicity at 70.5 h was -0.922%.

Work on `COCCOc1cccc(CNC(=O)CN2CCN(C)CC2C)c1` (stereo not drawn) yielded a cytotoxicity at 70.5 h of 10.3%.

Work on `CC(C)OCCN1CCN(C(C)c2nc(C3CC3)no2)CC1` (stereo not drawn) yielded a cytotoxicity at 70.5 h of 17.9%.

In the case of `CC(=O)N(C)CCCc1cc(-c2ccccc2)no1`, the cytotoxicity at 70.5 h is reported as -4.09%.

Molecule `CC1CN(Cc2cc(C#N)ccc2F)CCN1Cc1nccn1C` (stereo not drawn) has a cytotoxicity at 70.5 h of -3.5%.

For `CCN1CCOC(CNCc2ccc(OCc3ccccn3)cc2)C1` (stereo not drawn), the cytotoxicity at 70.5 h was -6.17%.

`CCOc1ncccc1NC(=O)N1CCCC(CNC(N)=O)C1` (stereo not drawn) gave a cytotoxicity at 70.5 h of -8.62%.

With `CCOc1ncccc1NC(=O)N1CCC(CN2CCOCC2)CC1` the cytotoxicity at 70.5 h was -3.11%.

Work on `Cc1ccc(C(C)N(C)Cc2nc3c(cnn3C)c(=O)[nH]2)s1` (stereo not drawn) yielded a cytotoxicity at 70.5 h of -8.32%.

`O=C(Nc1cccc(CNCc2ccccn2)c1)C1CCCC1` gave a cytotoxicity at 70.5 h of -4.03%.

Work on `CC(c1ccccc1Cl)N(C)Cc1nc2c(cnn2C)c(=O)[nH]1` (stereo not drawn) yielded a cytotoxicity at 70.5 h of -2.36%.

For `CN(CC(=O)N1CCC(COc2ccccc2)CC1)c1cnccn1`, the cytotoxicity at 70.5 h was -0.223%.

In the case of `CC(C(=O)NC(N)=O)N(C)CCCc1cc(-c2ccccc2)no1` (stereo not drawn), the cytotoxicity at 70.5 h is reported as -3.63%.

For `CCc1ccc(S(=O)(=O)Nc2ccc(F)cc2C(=O)O)s1`, the cytotoxicity at 70.5 h was 5.89%.

Molecule `CC1CN(C)CCN1CC(=O)NCCOc1ccc(Cl)cc1` (stereo not drawn) has a cytotoxicity at 70.5 h of 11.2%.

In the case of `Clc1cc(CN2CCCCC2Cn2cncn2)c2ncccc2c1` (stereo not drawn), the cytotoxicity at 70.5 h is reported as -9.86%.

Work on `CC(C)Oc1ccc(CNC(=O)CN(C)S(C)(=O)=O)cc1F` yielded a cytotoxicity at 70.5 h of -6.43%.

Work on `CC(C)Oc1ccc(CNC(=O)CCN2C(=O)CCC2=O)cc1F` yielded a cytotoxicity at 70.5 h of -3.49%.

Molecule `CCN1CCOC(CNCc2ccccc2OCc2cccnc2)C1` (stereo not drawn) has a cytotoxicity at 70.5 h of 0.0939%.

With `CC(C)Oc1ccc(CNC(=O)NCc2ccncc2)cc1F` the cytotoxicity at 70.5 h was -10.8%.

For `CSCC(=O)N1CCCC(c2cc(C)[nH]n2)C1` (stereo not drawn), the cytotoxicity at 70.5 h was -12%.

Work on `CNc1nc(CNC(=O)Nc2ccc(SC)c(F)c2)cs1` yielded a cytotoxicity at 70.5 h of -1.49%.

Work on `CNc1nc(CNC(=O)Nc2cccc(-n3ccc(C)n3)c2)cs1` yielded a cytotoxicity at 70.5 h of 0.812%.

`O=C(NCCNc1ccccn1)N1CCC(O)CC1` gave a cytotoxicity at 70.5 h of 3.99%.

With `CC(NC(=O)NCCCn1cncn1)c1ccc(C#N)cc1` (stereo not drawn) the cytotoxicity at 70.5 h was 1.25%.

In the case of `Cc1ccc(C(=O)NCCSCc2cccs2)cn1`, the cytotoxicity at 70.5 h is reported as 12.6%.

With `CN(Cc1cnn(C)c1)C(=O)NCCc1ccc2c(c1)OCO2` the cytotoxicity at 70.5 h was -1.01%.

For `Cc1ccc(CNC(=O)N(C)Cc2cnn(C)c2)s1`, the cytotoxicity at 70.5 h was -1.07%.

Work on `CCN(Cc1ccc2c(c1)OCCO2)C(=O)NCCc1cnn(C)c1` yielded a cytotoxicity at 70.5 h of 0.223%.

Work on `NC(=O)C1CCN(C(=O)NCCNc2ccccn2)CC1` yielded a cytotoxicity at 70.5 h of -1.19%.

For `CCc1nc(CN2CCN(C(=O)c3csnn3)CC2)cs1`, the cytotoxicity at 70.5 h was -0.125%.

In the case of `Cc1cnn(CCNCc2cc(C#N)ccc2F)c1`, the cytotoxicity at 70.5 h is reported as 18.7%.

In the case of `Cc1cc(NC(=O)CN2CCN(c3nc(C)cs3)C(C)C2)on1` (stereo not drawn), the cytotoxicity at 70.5 h is reported as -1.59%.

Work on `Cc1nn(C)c(C)c1C1CCCN1C(=O)c1ccc(N(C)C)nc1` (stereo not drawn) yielded a cytotoxicity at 70.5 h of -0.439%.

Work on `CCCN(C)S(=O)(=O)N1CCCC1c1ccco1` (stereo not drawn) yielded a cytotoxicity at 70.5 h of 1.45%.

Work on `CN(Cc1cnccn1)S(=O)(=O)N1CCCC1c1ccco1` (stereo not drawn) yielded a cytotoxicity at 70.5 h of 1.01%.

With `Cn1cccc1C1CCCCCN1C(=O)c1ccc(NC2CC2)nc1` (stereo not drawn) the cytotoxicity at 70.5 h was 12.8%.

With `Cc1cnn(CCNCc2cccc(C#N)c2)c1` the cytotoxicity at 70.5 h was 4.17%.

`Cc1cnn(CCNCc2ccc(C#N)cc2)c1` gave a cytotoxicity at 70.5 h of -1.47%.

Work on `N#Cc1ccc(CNCCn2cccn2)c(F)c1` yielded a cytotoxicity at 70.5 h of 13.7%.

Molecule `Cc1csc(N2CCN(CC(=O)NCc3ccccn3)CC2C)n1` (stereo not drawn) has a cytotoxicity at 70.5 h of -13.9%.

`Cc1nc(CN2CCCN(C(=O)c3cnccn3)CC2)cs1` showed a cytotoxicity at 70.5 h of -3.13%.

With `Cc1nc(CN2CCCC2c2noc(C3CC3)n2)nc2ccccc12` (stereo not drawn) the cytotoxicity at 70.5 h was 43.5%.

Work on `Cc1cc(C)n(CC2CCCN2C(=O)c2cncnc2C)n1` (stereo not drawn) yielded a cytotoxicity at 70.5 h of 1.29%.

`Cc1ccc(CNC(c2ccccc2)c2nccn2C)cc1` (stereo not drawn) gave a cytotoxicity at 70.5 h of 22.4%.
